Values quoted from earlier work, collected in patent publication US12237054B2, “Model for high-throughput screening of endocrine disruptor and method for screening same” (Nanjing University, priority 2018, dated 2025).

Tested on: HEK293T
Settings: standardized Activity value, data from public databases (ToxCast/Tox21, ChEMBL)

Which cytotoxicity experimental value does the source give for `CC(C)C(=O)Nc1ccc([N+](=O)[O-])c(C(F)(F)F)c1` [Flutamide] here?
The cytotoxicity experimental value was 4.4.
